Patent US20170217976A1, “6-(AMINO ACID)-MORPHINAN DERIVATIVES IN COMBINATION WITH PERMEATION […] FOR USE AS AN ORALLY, […], TRA[…] NASALLY AD[…]” (C[…], priority 2014, published 2017)
Where two headings read alike, the source gives them in different places.

What was measured:
[1] = molecular target: T1, DOR (Rattus norvegicus, UniProt P33533); assay: Opioid receptor binding, DOR, rat brain membranes
T1 construct: from tissue

[2] = molecular target: T2, KOR (Cavia porcellus, UniProt P41144); assay: Opioid receptor binding, KOR, guinea pig brain membranes
T2 construct: from tissue

[3] = molecular target: T3, MOR (Rattus norvegicus, UniProt P33535); assay: Opioid receptor binding, MOR, rat brain membranes
T3 construct: from tissue

[4] = Binding Ki DOR, Table 2-6, rat brain membranes
[5] = Binding Ki KOR, Table 2-6, guinea pig brain membranes
[6] = Binding Ki MOR, Table 2-6, rat brain membranes
[7] = Table 2-6, rat brain membranes, read-out: Binding Ki DOR
[8] = Table 2-6, guinea pig brain membranes, read-out: Binding Ki KOR
[9] = Table 2-6, rat brain membranes, read-out: Binding Ki MOR
[10] = Binding Ki (nM) DOR, in vitro binding assay, rat brain membranes
[11] = Binding Ki DOR, Table 1-4, rat brain membranes
[12] = Binding Ki (nM) KOR, in vitro binding assay, guinea pig brain membranes
[13] = Binding Ki KOR, Table 1-4, guinea pig brain membranes
[14] = Binding Ki (nM) MOR, in vitro binding assay, rat brain membranes
[15] = Binding Ki MOR, Table 1-4, rat brain membranes
[16] = Table 1-4, rat brain membranes, read-out: Binding Ki DOR
[17] = Table 1-4, guinea pig brain membranes, read-out: Binding Ki KOR
[18] = Table 1-4, rat brain membranes, read-out: Binding Ki MOR

T3 sequence (P33535 whole entry): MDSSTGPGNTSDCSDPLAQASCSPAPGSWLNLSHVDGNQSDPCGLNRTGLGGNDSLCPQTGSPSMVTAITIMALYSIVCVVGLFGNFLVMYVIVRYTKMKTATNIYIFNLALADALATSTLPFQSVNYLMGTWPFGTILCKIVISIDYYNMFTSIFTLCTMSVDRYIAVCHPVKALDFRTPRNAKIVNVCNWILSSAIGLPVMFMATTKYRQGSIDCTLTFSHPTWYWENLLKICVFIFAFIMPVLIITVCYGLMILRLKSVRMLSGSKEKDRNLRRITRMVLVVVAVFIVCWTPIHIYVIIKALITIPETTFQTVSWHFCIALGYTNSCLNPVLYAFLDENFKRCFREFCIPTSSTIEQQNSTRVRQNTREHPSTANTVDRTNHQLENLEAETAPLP
T1 sequence (P33533 whole entry): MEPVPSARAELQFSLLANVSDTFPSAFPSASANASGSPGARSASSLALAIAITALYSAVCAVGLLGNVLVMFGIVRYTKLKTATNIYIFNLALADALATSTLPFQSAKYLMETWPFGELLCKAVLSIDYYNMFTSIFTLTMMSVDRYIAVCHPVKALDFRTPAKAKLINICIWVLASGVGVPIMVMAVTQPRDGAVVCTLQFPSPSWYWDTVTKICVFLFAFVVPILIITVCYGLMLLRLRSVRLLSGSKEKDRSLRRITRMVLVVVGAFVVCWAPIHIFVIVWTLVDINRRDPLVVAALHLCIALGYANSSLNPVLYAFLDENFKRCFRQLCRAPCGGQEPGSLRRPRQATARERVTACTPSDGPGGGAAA
T2 sequence (P41144 whole entry): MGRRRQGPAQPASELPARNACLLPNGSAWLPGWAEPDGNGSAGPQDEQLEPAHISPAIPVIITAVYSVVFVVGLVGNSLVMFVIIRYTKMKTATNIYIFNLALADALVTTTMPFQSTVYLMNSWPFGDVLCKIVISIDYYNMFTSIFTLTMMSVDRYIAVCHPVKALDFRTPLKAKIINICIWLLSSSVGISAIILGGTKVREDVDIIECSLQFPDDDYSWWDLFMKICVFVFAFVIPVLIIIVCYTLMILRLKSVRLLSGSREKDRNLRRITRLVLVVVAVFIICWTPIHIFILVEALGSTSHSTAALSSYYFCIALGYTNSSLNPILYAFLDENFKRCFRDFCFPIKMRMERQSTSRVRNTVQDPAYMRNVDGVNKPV

Structure (SMILES)	Ki [1, 4] [nM]	Ki [2, 5] [nM]	Ki [3, 6] [nM]	other results
CC(C)(C)OC(=O)[C@H](Cc1ccccc1)N[C@H]1CC[C@@]2(O)[C@H]3Cc4ccc(O)c5c4[C@@]2(CCN3CC2CC2)[C@H]1O5 [59-tBu ester]	2.15	5	1	–
CC(C)(C)OC(=O)[C@H](Cc1ccccc1)N[C@@H]1CC[C@@]2(O)[C@H]3Cc4ccc(O)c5c4[C@@]2(CCN3CC2CC2)[C@H]1O5 [60-tBu ester]	1.12	17.6	5.49	–
CO[C@@]12CC[C@H](NCC(=O)OC(C)(C)C)[C@@H]3Oc4c(O)ccc5c4[C@@]31CCN(CC1CC1)[C@@H]2C5 [61-tBu ester]	0.5	1.41	0.43	–
CO[C@@]12CC[C@@H](NCC(=O)OC(C)(C)C)[C@@H]3Oc4c(O)ccc5c4[C@@]31CCN(CC1CC1)[C@@H]2C5 [62-Bu ester]	–	–	–	Ki [1, 7]: 0.96 nM; Ki [2, 8]: 8.36 nM; Ki [3, 9]: 2.66 nM
CO[C@@]12CC[C@@H](NCCC(=O)OC(C)(C)C)[C@@H]3Oc4c(O)ccc5c4[C@@]31CCN(CC1CC1)[C@@H]2C5 [64-tBu ester]	0.91	2.13	1.52	–
CO[C@@]12CC[C@H](NCCCC(=O)OC(C)(C)C)[C@@H]3Oc4c(O)ccc5c4[C@@]31CCN(CC1CC1)[C@@H]2C5 [65-tBu ester]	2.69	0.6	0.46	–
CO[C@@]12CC[C@@H](NCCCC(=O)OC(C)(C)C)[C@@H]3Oc4c(O)ccc5c4[C@@]31CCN(CC1CC1)[C@@H]2C5 [66-tBu ester]	3.78	2.81	2.13	–
CO[C@@]12CC[C@H](N[C@H](C(=O)OC(C)(C)C)C(C)C)[C@@H]3Oc4c(O)ccc5c4[C@@]31CCN(CC1CC1)[C@@H]2C5 [68-tBu ester]	–	–	–	Ki [1, 7]: 0.85 nM; Ki [2, 8]: 3.13 nM; Ki [3, 9]: 1.81 nM
CO[C@@]12CC[C@@H](N[C@H](C(=O)OC(C)(C)C)C(C)C)[C@@H]3Oc4c(O)ccc5c4[C@@]31CCN(CC1CC1)[C@@H]2C5 [69-tBu ester]	0.7	4.32	1.23	–
CO[C@@]12CC[C@H](N[C@@H](C(=O)OC(C)(C)C)C(C)C)[C@@H]3Oc4c(O)ccc5c4[C@@]31CCN(CC1CC1)[C@@H]2C5 [70-tBu ester]	0.51	18.8	0.63	–
CO[C@@]12CC[C@@H](N[C@@H](C(=O)OC(C)(C)C)C(C)C)[C@@H]3Oc4c(O)ccc5c4[C@@]31CCN(CC1CC1)[C@@H]2C5 [71-tBu ester]	0.24	15.2	1.94	–
CO[C@@]12CC[C@H](N[C@@H](CC(C)C)C(=O)OC(C)(C)C)[C@@H]3Oc4c(O)ccc5c4[C@@]31CCN(CC1CC1)[C@@H]2C5 [76-tBu ester]	0.092	0.8	0.13	–
CO[C@@]12CC[C@@H](N[C@@H](CC(C)C)C(=O)OC(C)(C)C)[C@@H]3Oc4c(O)ccc5c4[C@@]31CCN(CC1CC1)[C@@H]2C5 [77-tBu ester]	0.094	0.68	0.13	–
CC[C@H](C)[C@H](N[C@@H]1CC[C@@]2(OC)[C@H]3Cc4ccc(O)c5c4[C@@]2(CCN3CC2CC2)[C@H]1O5)C(=O)OC(C)(C)C [78-tBu ester]	0.52	5.67	0.98	–
CCO[C@@]12CC[C@H](NCC(=O)O)[C@@H]3Oc4c(O)ccc5c4[C@@]31CCN(C)[C@@H]2C5 [Compound 5]	–	–	–	Ki [1, 10]: 10.3 nM; Ki [1, 11]: 10.3 nM; Ki [2, 12]: 45.2 nM; Ki [2, 13]: 45.2 nM; Ki [3, 14]: 0.57 nM; Ki [3, 15]: 0.57 nM
CCO[C@@]12CC[C@@H](NCC(=O)O)[C@@H]3Oc4c(O)ccc5c4[C@@]31CCN(C)[C@@H]2C5 [Compound 6]	–	–	–	Ki [1, 10]: 5.31 nM; Ki [1, 11]: 5.31 nM; Ki [2, 12]: 102 nM; Ki [2, 13]: 102 nM; Ki [3, 14]: 0.95 nM; Ki [3, 15]: 0.95 nM
CN1CC[C@]23c4c5ccc(O)c4O[C@H]2[C@@H](N[C@@H](Cc2ccccc2)C(=O)O)CC[C@@]3(O)[C@H]1C5 [Compound 11]	–	–	–	Ki [1, 11]: 19 nM; Ki [2, 13]: 344 nM; Ki [3, 15]: 2.3 nM
CN1CC[C@]23c4c5ccc(O)c4O[C@H]2[C@H](N[C@@H](Cc2ccccc2)C(=O)O)CC[C@@]3(O)[C@H]1C5 [Compound 12]	–	–	–	Ki [1, 16]: 8.29 nM; Ki [2, 17]: 634 nM; Ki [3, 18]: 6.91 nM
CC(NC1CCC2(O)C3Cc4ccc(O)c5c4C2(CCN3C)C1O5)C(=O)O (stereo not drawn) [Compound 13]	–	–	–	Ki [1, 16]: 170 nM; Ki [2, 17]: 710 nM; Ki [3, 18]: 3 nM
C[C@H](N[C@@H]1CC[C@@]2(O)[C@H]3Cc4ccc(O)c5c4[C@@]2(CCN3C)[C@H]1O5)C(=O)O [Compound 14]	–	–	–	Ki [1, 11]: 78.7 nM; Ki [2, 13]: 542 nM; Ki [3, 15]: 11 nM
